From ChEMBL document CHEMBL4130433, “Acridone-pyrimidine hybrids- design, synthesis, cytotoxicity studies in resistant and sensitive cancer cells and molecular docking studies” (Eur J Med Chem, 2017)

How the values were obtained:
MCF7 = experiment: Antiproliferative activity against human MCF7 cells after 72 hrs by MTT assay; assay type: functional, cell-based; conditions: MCF7, 72 h
[1] = Cytotoxicity against African green monkey Vero cells after 72 hrs by MTT assay; assay type: cell-based; conditions: chlorocebus sabaeus
2008 = experiment: Antiproliferative activity against resistant human 2008 cells clone 6 harboring MRP1 after 72 hrs by MTT assay; assay type: functional, cell-based; conditions: Homo sapiens, 2008, 72 h
[2] = Antiproliferative activity against human MCF7/MX cells after 72 hrs by MTT assay; assay type: functional, cell-based
Rattus norvegicus [3] = experiment: Toxicity in overnight fasted albino Wistar rat assessed as body weight at 5000 mg/kg, po administered as single dose followed by fasting for 3 hrs measured on day 1 post dose (reference value: 162 +/- 8 g); assay type: organism-based; conditions: in vivo
Rattus norvegicus [4] = experiment: Toxicity in overnight fasted albino Wistar rat assessed as body weight at 300 mg/kg, po administered as single dose followed by fasting for 3 hrs measured on day 3 post dose (reference value: 166 +/- 10 g); assay type: organism-based; conditions: in vivo
Rattus norvegicus [5] = experiment: Toxicity in overnight fasted albino Wistar rat assessed as body weight at 2000 mg/kg, po administered as single dose followed by fasting for 3 hrs measured on day 3 post dose (reference value: 166 +/- 10 g); assay type: organism-based; conditions: in vivo
Rattus norvegicus [6] = experiment: Toxicity in overnight fasted albino Wistar rat assessed as body weight at 2000 mg/kg, po administered as single dose followed by fasting for 3 hrs measured on day 4 post dose (reference value: 169 +/- 5 g); assay type: organism-based; conditions: in vivo
Rattus norvegicus [7] = experiment: Toxicity in overnight fasted albino Wistar rat assessed as body weight at 2000 mg/kg, po administered as single dose followed by fasting for 3 hrs measured on day 5 post dose (reference value: 172 +/- 14 g); assay type: organism-based; conditions: in vivo
Rattus norvegicus [8] = experiment: Toxicity in overnight fasted albino Wistar rat assessed as body weight at 5000 mg/kg, po administered as single dose followed by fasting for 3 hrs measured on day 5 post dose (reference value: 172 +/- 14 g); assay type: organism-based; conditions: in vivo
Rattus norvegicus [9] = experiment: Toxicity in overnight fasted albino Wistar rat assessed as body weight at 300 mg/kg, po administered as single dose followed by fasting for 3 hrs measured on day 6 post dose (reference value: 173 +/- 12 g); assay type: organism-based; conditions: in vivo
Rattus norvegicus [10] = experiment: Toxicity in overnight fasted albino Wistar rat assessed as body weight at 2000 mg/kg, po administered as single dose followed by fasting for 3 hrs measured on day 6 post dose (reference value: 173 +/- 12 g); assay type: organism-based; conditions: in vivo
Rattus norvegicus [11] = experiment: Toxicity in overnight fasted albino Wistar rat assessed as body weight at 2000 mg/kg, po administered as single dose followed by fasting for 3 hrs measured on day 8 post dose (reference value: 177 +/- 8 g); assay type: organism-based; conditions: in vivo
Rattus norvegicus [12] = experiment: Toxicity in overnight fasted albino Wistar rat assessed as body weight at 2000 mg/kg, po administered as single dose followed by fasting for 3 hrs measured on day 9 post dose (reference value: 180 +/- 12 g); assay type: organism-based; conditions: in vivo
Rattus norvegicus [13] = experiment: Toxicity in overnight fasted albino Wistar rat assessed as body weight at 300 mg/kg, po administered as single dose followed by fasting for 3 hrs measured on day 10 post dose (reference value: 182 +/- 15 g); assay type: organism-based; conditions: in vivo
Rattus norvegicus [14] = experiment: Toxicity in overnight fasted albino Wistar rat assessed as body weight at 5000 mg/kg, po administered as single dose followed by fasting for 3 hrs measured on day 10 post dose (reference value: 182 +/- 15 g); assay type: organism-based; conditions: in vivo
Rattus norvegicus [15] = experiment: Toxicity in overnight fasted albino Wistar rat assessed as body weight at 2000 mg/kg, po administered as single dose followed by fasting for 3 hrs measured on day 11 post dose (reference value: 185 +/- 8 g); assay type: organism-based; conditions: in vivo
Rattus norvegicus [16] = experiment: Toxicity in overnight fasted albino Wistar rat assessed as body weight at 300 mg/kg, po administered as single dose followed by fasting for 3 hrs measured on day 12 post dose (reference value: 186 +/- 13 g); assay type: organism-based; conditions: in vivo
Rattus norvegicus [17] = experiment: Toxicity in overnight fasted albino Wistar rat assessed as body weight at 2000 mg/kg, po administered as single dose followed by fasting for 3 hrs measured on day 12 post dose (reference value: 186 +/- 13 g); assay type: organism-based; conditions: in vivo
Rattus norvegicus [18] = experiment: Toxicity in overnight fasted albino Wistar rat assessed as body weight at 5000 mg/kg, po administered as single dose followed by fasting for 3 hrs measured on day 12 post dose (reference value: 186 +/- 13 g); assay type: organism-based; conditions: in vivo
Rattus norvegicus [19] = experiment: Toxicity in overnight fasted albino Wistar rat assessed as body weight at 2000 mg/kg, po administered as single dose followed by fasting for 3 hrs measured on day 13 post dose (reference value: 188 +/- 16 g); assay type: organism-based; conditions: in vivo
Rattus norvegicus [20] = experiment: Toxicity in overnight fasted albino Wistar rat assessed as body weight at 2000 mg/kg, po administered as single dose followed by fasting for 3 hrs measured on day 14 post dose (reference value: 191 +/- 18 g); assay type: organism-based; conditions: in vivo
A549 = experiment: cells; conditions: Homo sapiens, A549, 72 h
Description: Antiproliferative activity against human A549 cells after 72 hrs by MTT assay

IC50 (MCF7): 65 µM
IC50 (A549): 29.1 µM
SMILES: COC(=O)c1c(C)nc(NNC(=O)c2cccc3c(=O)c4ccccc4[nH]c23)nc1-c1ccc(OC)c(OC)c1
CC50 at 72 h [1]: 85.7 µM
IC50 2008: 65 µM
IC50 [2]: 78 µM
Activity (Rattus norvegicus [3]): 188 g
Activity (Rattus norvegicus [4]): 185 g
Activity (Rattus norvegicus [5]): 186 g
Activity (Rattus norvegicus [6]): 187 g
Activity (Rattus norvegicus [7]): 190 g
Activity (Rattus norvegicus [8]): 198 g
Activity (Rattus norvegicus [9]): 190 g
Activity (Rattus norvegicus [10]): 194 g
Activity (Rattus norvegicus [11]): 197 g
Activity (Rattus norvegicus [12]): 199 g
Activity (Rattus norvegicus [13]): 193 g
Activity (Rattus norvegicus [14]): 215 g
Activity (Rattus norvegicus [15]): 205 g
Activity (Rattus norvegicus [16]): 199 g
Activity (Rattus norvegicus [17]): 206 g
Activity (Rattus norvegicus [18]): 221 g
Activity (Rattus norvegicus [19]): 209 g
Activity (Rattus norvegicus [20]): 213 g
